Entries after “also recorded” stand apart in the source; their conditions may differ.
Key:
B16 murine melanoma = experiment: B16 melanoma in vivo, survival of B6D2F1 mice; conditions: for T/C: mean survival treated/control
Method: B6D2F1 mice received i.p. inocula of B16 murine melanoma brei prepared from B16 tumors growing subcutaneously in mice (day 0). On day 1, rumored mice were treated with drugs or vehicle control; the route of drug administration and schedule were selected as appropriate for the study in question. If dosing information for agents was not available, the maximum tolerated dose (MTD) was determined in initial dose finding experiments in non-tumored mice. In a typical experiment, drugs were given at their MTD and 1/2 MTD doses i.p. on a daily×5 schedule.
The mean survival times of all groups were calculated, and results were expressed as mean survival of treated mice/mean survival of control mice (T/C)×100%. A T/C value of 150 means that the mice in the treated group lived 50% longer than those of the control group; this is sometimes referred to as the increase in life space, or ILS value.
Mice that survived for 60 days were considered long term survivors, or cures, in the B16 model. The universally accepted cut-off for activity in this model, which has been used for years by the National Cancer Institute, is T/C=125.
Statistics were performed on the data using primarily the log rank p-value test.

DNA = experiment: Ethidium bromide displacement, DNA binding in general
Method: (§1) The binding of the bis-naphthalimides to DNA and to synthetic polynucleotide duplexes was determined by an ethidium bromide displacement assay that measures the reduction of fluorescence when ethidium bromide is displaced from DNA (Baguley, 1981). The fluorescence intensity of a 3 ml solution containing 9.3 mM NaCl, 2 mM Tris-HCl (pH 7.0), 100 μM EDTA, 1 μM DNA (in nucleotides) and 1.26 μM ethidium bromide in a quartz cuvette was measured at the excitation (546 nm) and emission (600 nm) wavelengths on a Shimadzu RF5000U spectrofluorometer. Graded concentrations of agent were then added and the fluorescence intensity was measured. The concentration of compound required to reduce the fluorescence intensity by 50% of that of control (FI50) was determined. Therefore, the lower the FI50 the stronger the binding affinity a particular compound has for DNA.
The ability of bis-naphthalimides of the present invention and the known anti-cancer agents compound 22 and DMP840, (R,R)-2,2'[1,2-ethanediylbis[imino(1-methyl-2,1-ethanediyl)]]-bis[5-nitro- 1H benz[de]isoquinoline-1,3-(2H)dione]dimethanesulfonate, to bind to DNA and to synthetic oligonucleotide duplexes was measured using an ethidium bromide displacement assay. Ethidium bromide, a known DNA intercalator, has no fluorescence in the absence of DNA; however, fluorescence intensity increases when ethidium bromide binds to DNA. […]

[1] = test system: MCF-7 Human Breast Carcinoma cell line; experiment: In vitro growth inhibition (MTT), MCF-7 breast carcinoma; assay type: cell-based; conditions: 6 days
Source text: (§2) P388 murine leukemic cell line was obtained from the DCT Tumor Repository (National Cancer Institute, Frederick Cancer Research and Development, Frederick Md. 21702). HT29 Human Colon Carcinoma cell line was obtained from the American Type Culture Collection (12301 Parklawn Drive, Rockville, Md. 20852). B16 Melanoma cell line was obtained from DuPont Merck Pharmaceutical Company (Glenolden, Pa. 19036). MCF-7 Human Breast Carcinoma cell line was a gift from Dr. K. Osborne (Department of Medicine, The University of Texas Health Science Center at San Antonio, San Antonio, Tex. 78284). All cell lines were incubated at 37° C. in a humidified atmosphere of 5% CO2 -95% air. Murine B16 melanoma cell line was grown in RPMI 1640 medium supplemented with 10% heat-inactivated fetal bovine serum, 2 mM L-glutamine, 50 units/ml penicillin, 50 μg/ml streptomycin, 25 μg/ml gentamycin, 0.75% sodium bicarbonate, 10 mM HEPES buffer (pH 7.4), and 0.06 mg/ml AntiPPLO. Murine P388 leukemic and the human HT-29 colon adenocarcinoma cell lines were maintained in RPMI 1640 medium supplemented with 10% heat-inactivated fetal bovine serum. MCF-7M human breast adenocarcinoma was maintained in IMEM medium supplemented with 5% non heat-inactivated fetal bovine serum and 1 nM insulin.
(§3) Exponentially growing cells (1-2×10^3 cells, unless specified otherwise) in 0.1 ml medium were seeded on day 0 in a 96-well microtiter plate. On day 1, 0.1 ml aliquots of medium containing graded concentrations of test compounds were added in duplicate to the cell plates. After incubation at 37° C. in a humidified incubator for 3 days (P388, B16) or 6 days (HT-29, MCF-7M), the plates were centrifuged briefly and 100 μl of the growth medium was removed. Cell cultures were incubated with 50 μl of 3-(4,5-dimethylthiazol-2-yl)-2,5-diphenyl-tetrazolium bromide [MTT, 1 mg/ml in Dulbecco's phosphate buffered saline (PBS)] for 4 hr at 37° C. The resulting purple formazan precipitate was solubilized with 200 μl of 0.04N HCl in isopropyl alcohol. Absorbance was monitored in a BioRad Model 3550 Microplate Reader at a test wavelength of 570 nm and a reference wavelength of 630 nm. The absorbance was transferred to a PC 486 computer. The IC50 values were determined by a computer program (EZ-ED50) that fit all of the data to the following four-parameterlogistic equation:
(§4) Y=((Am -Ao)/(1+(X/IC50)^n))+Ao
(§5) where Am is the absorbance of control cells, Ao is the absorbance of cells in the presence of highest agent concentration, Y is the observed absorbance, X is the agent concentration, IC50 is the concentration of agent that inhibits the cell growth by 50% of control cells (based on the absorbance) and n is the slope of the curve.

[2] = test system: poly (dG.dC) - poly (dG.dC); experiment: Ethidium bromide displacement, poly(dG.dC)-poly(dG.dC); assay type: binding; conditions: for Ratio (AT/GC): FI50 poly(dA.dT)-poly(dA.dT) / FI50 poly(dG.dC)-poly(dG.dC); for IC50: ethidium bromide displacement, 1 μM DNA, 1.26 μM ethidium bromide, pH 7.0, read-out: FI50, poly (dG.dC) - poly (dG.dC)
Method: (§6) A 10× Binding solution was prepared by combining 0.93 ml of an aqueous NaCl solution (5M), 2.0 ml of an aqueous Tris HCl (500 mM) solution, 0.1 ml of an EDTA solution (500 mM) and 46.97 ml of water. The resultant solution was 93 mM in NaCl, 20 mM in Tris HCl, and 1 mM in EDTA. Stock DNA solution were prepared as follows: Poly (dG·dC)-(dG·dC) (ε254=8.4/mM; 27-7910-02), poly(dA·dT)-(dA·dT) (ε262=6.6/mM; 27-7870-02), and lambda DNA (ε260-7.0/mM; 27-4111-01) were purchased from Pharmacia. Solutions were prepared by resuspending either poly (dG·dC)-(dG·dC) or poly(dA·dT)-(dA·dT)in 1 ml of 10× DNA Binding Solution. Lambda DNA is already in solution as purchased.
(§7) Poly (dG·dC)-(dG·dC), poly(dA·dt)-(dA·dt) and lambda DNA concentrations were determined as follows: 980 μl of 10× DNA Binding Solution was pipetted into a 1 ml cuvette. A blank was run on the UV spectrophotometer. 20 μl of the DNA stock of unknown concentration was then added into the cuvette. The sample was then scanned between 210 nm to 500 nm and the absorbance recorded at 254 nm for poly(dG·dC)-(dG·dC), at 262 nm for poly(dA·dT)-(dA·dT) and at 260 nm for lambda DNA. The solution was transferred to a clean tube. This procedure was followed for three different solutions with the absorbance taken as the average of the three. The concentration of poly(dG·dC)-(dG·dC) stock was calculated to be A254 /8.4×1000 (in μM). The concentration of poly(dA·dT)-(dA·dT) stock was calculated to be A262 /6.6×1000 (in μM). The concentration of lambda DNA stock was calculated to be A260 /7.0×1000 (in μM).
as §1
(§8) The ability of bis-naphthalimides of the present invention and the known anti-cancer agents compound 22 and DMP840, (R,R)-2,2'[1,2-ethanediylbis[imino(1-methyl-2,1-ethanediyl)]]-bis[5-nitro- 1H benz[de]isoquinoline-1,3-(2H)dione]dimethanesulfonate, to bind to DNA and to synthetic oligonucleotide duplexes was measured using an ethidium bromide displacement assay. Ethidium bromide, a known DNA intercalator, has no fluorescence in the absence of DNA; however, fluorescence intensity increases when ethidium bromide binds to DNA. The ethidium bromide displacement assay measures the decrease in fluorescence intensity caused by DNA-bound ethidium bromide with DNA interacting agents.

[3] = target: poly (dA.dT) - poly (dA.dT); experiment: Ethidium bromide displacement, poly(dA.dT)-poly(dA.dT); assay type: binding; conditions: 1 μM DNA, 1.26 μM ethidium bromide, pH 7.0, read-out: FI50, poly (dA.dT) - poly (dA.dT)
Method: as §6, §7, §1, §8

Lambda DNA = experiment: Ethidium bromide displacement, lambda DNA; assay type: binding; conditions: 1 μM DNA, 1.26 μM ethidium bromide, pH 7.0, read-out: FI50, Lambda DNA
Method: as §6, §7, §1, §8

[4] = test system: P388 murine leukemic cell line; experiment: In vitro growth inhibition (MTT), P388 leukemia; assay type: cell-based; conditions: 3 days
Source text: as §2, §3, §4, §5

[5] = test system: Murine B16 melanoma cell line; experiment: In vitro growth inhibition (MTT), B16 melanoma; assay type: cell-based; conditions: MTT, 3 days
Source text: as §2, §3, §4, §5

[6] = test system: HT29 Human Colon Carcinoma cell line; experiment: In vitro growth inhibition (MTT), HT29 colon carcinoma; assay type: cell-based; conditions: 6 days
Source text: as §2, §3, §4, §5

## O=C1c2cccc3cc([N+](=O)[O-])cc(c23)C(=O)N1CCNCCOCCN1C(=O)c2cccc3cc([N+](=O)[O-])cc(c23)C1=O [Compound 6]
B16 murine melanoma; 15 mg/kg, q.d. × 5, i.p.
  60-Day Survivors: 0
  Wt. Ch. (%) (Day 7): -7.4%
  T/C: 210%
B16 murine melanoma; 30 mg/kg, q.d. × 5, i.p.
  60-Day Survivors: 0
  Wt. Ch. (%) (Day 7): -16.4%
  T/C: 233%
B16 murine melanoma; mouse, in vivo
  activity against B16 melanoma in vivo (in words): potent activity against B16 melanoma in vivo; also recorded: remarkable activity; also recorded: more active in this model than DMP840, compounds 22 and 23, and cytoxan; also recorded: more effective against B16 melanoma compared with DMP840
DNA
  DNA binding (in words): dose-dependent decrease in fluorescence intensity

## O=C1c2cccc3cc([N+](=O)[O-])cc(c23)C(=O)N1CCNCCSCCN1C(=O)c2cccc3cc([N+](=O)[O-])cc(c23)C1=O [Compound 10, 5-[2-(3-Nitronaphthalene-1,8-dicarboximido)ethylamino]-1-(3-nitronaphthalene-1,8-dicarboximido)-3-thiopentane]
[1]; Homo sapiens, MCF7, 144 h
  IC50: 9 nM
[2]
  Ratio (AT/GC): 22.3
  IC50: 770 nM
[3]
  IC50: 17200 nM
Lambda DNA
  IC50: 7370 nM
[4]; Mus musculus, P388, 72 h
  IC50: 56.5 nM
[5]; Mus musculus, B16, 72 h
  IC50: 33 nM

## O=C1c2cccc3cc([N+](=O)[O-])cc(c23)C(=O)N1CCNCC[S+]([O-])CCN1C(=O)c2cccc3cc([N+](=O)[O-])cc(c23)C1=O (stereo not shown) [Compound 12]
[1]
  IC50: 1.6 nM
[2]
  Ratio (AT/GC): 51.06
  IC50: 125 nM
[3]
  IC50: 6380 nM
[6]
  IC50: 1.7 nM
Lambda DNA
  IC50: 169 nM
[4]; Mus musculus, P388, 72 h
  IC50: 9 nM
[5]
  IC50: 6.3 nM

## O=C1c2cccc3cc([N+](=O)[O-])cc(c23)C(=O)N1CCNCC[S+]([O-])CCN1C(=O)c2cccc3cc([N+](=O)[O-])cc(c23)C1=O (stereo not shown) [Compound 13]
[1]
  IC50: < 0.1 nM
[2]
  Ratio (AT/GC): 212.6
  IC50: 18 nM
[3]
  IC50: 3850 nM
[6]
  IC50: 0.2 nM
Lambda DNA
  IC50: 180 nM
[4]
  IC50: < 5 nM
[5]
  IC50: 1.6 nM

## O=C1c2cccc3cc([N+](=O)[O-])cc(c23)C(=O)N1CCNCCS(=O)(=O)CCN1C(=O)c2cccc3cc([N+](=O)[O-])cc(c23)C1=O [Compound 14]
[1]
  IC50: 132 nM
[2]
  Ratio (AT/GC): 64.38
  IC50: 672 nM
[3]
  IC50: 43300 nM
[6]; Homo sapiens, HT-29, 144 h
  IC50: 44 nM
Lambda DNA
  IC50: 24200 nM
[4]; Mus musculus, P388, 72 h
  IC50: 27 nM
[5]
  IC50: 86 nM

## O=C1c2cccc3cc([N+](=O)[O-])cc(c23)C(=O)N1CCNCCS(=O)(=O)CCN1C(=O)c2cccc3cc([N+](=O)[O-])cc(c23)C1=O [Compound 15, 5-[2-(3-Nitronaphthalene-1,8-dicarboximido)ethylamino]-1-(3-nitronaphthalene-1,8-dicarboximido)-3-sulfonylpentane hydromethanesulfonate]
[1]
  IC50: 36 nM
[2]
  Ratio (AT/GC): 144.4
  IC50: 118 nM
[3]
  IC50: 17100 nM
[6]
  IC50: 22 nM
Lambda DNA
  IC50: 1030 nM
[4]
  IC50: 29.9 nM
[5]
  IC50: 34 nM

## O=C1c2cccc3cc([N+](=O)[O-])cc(c23)C(=O)N1CCNCCNCCN1C(=O)c2cccc3cc([N+](=O)[O-])cc(c23)C1=O [Compound 22, 2,2'[1,2-ethanediylbis[imino(2,1-ethanediyl)]]-bis[5-nitro-1H-benz[de]isoquinoline-1,3-(2H)-dione]dimethanesulfonate]
[2]
  Ratio (AT/GC): 16.5
B16 murine melanoma; 2.5 mg/kg, q.d. × 5, i.p.
  60-Day Survivors: 0
  Wt. Ch. (%) (Day 7): -0.17%
  T/C: 141%

## O=C1c2cccc3cc([N+](=O)[O-])cc(c23)C(=O)N1CCNCCNCCN1C(=O)c2cccc3cc([N+](=O)[O-])cc(c23)C1=O [Compound 23, 2,2'[1,2-ethanediylbis[imino(2,1-ethanediyl)]]-bis[5-nitro-1H-benz[de]isoquinoline-1,3-(2H)-dione]]
B16 murine melanoma; 2.5 mg/kg, q.d. × 5, i.p.
  60-Day Survivors: 0
  Wt. Ch. (%) (Day 7): 0.95%
  T/C: 162%

## O=P1(N(CCCl)CCCl)NCCCO1 (stereo not shown) [Cytoxan]
B16 murine melanoma; 150 mg/kg, q.d. × 5, i.p.
  60-Day Survivors: 0
  Wt. Ch. (%) (Day 7): -12.2%
  T/C: 175%
B16 murine melanoma; 300 mg/kg, q.d. × 1, i.p.
  60-Day Survivors: 0
  Wt. Ch. (%) (Day 7): -6.6%
  T/C: 197%
B16 murine melanoma; mouse, in vivo
  highest effective dose: 300 mg/kg

Source: US5561042A, “Diamine platinum naphthalimide complexes as antitumor agents” (Cancer Therapy and Research Center, priority 1995, dated 1996)
